Measurements from US5691368A, “Substituted oxazolidine calpain and/or cathepsin B inhibitors” (Hoechst Marion Roussel, Inc., priority 1995, dated 1997).
Values joined by “and” are separate entries in the source; they are usually repeats but may differ in a detail not shown here. Equal values may be shown once. Read-outs that look alike come from different tables or passages of the source. Each block holds one compound with its values, some of them ahead of it. Where a SMILES comes first, the peptide text is derived from it. The star is where a group is joined. Cbz = O=C(OCc1ccccc1)*

Tests used:
calpain [1] = conditions: cited from earlier work
[2] = system: proteolytic response to post-decapitation ischemia; conditions: cited from earlier work
calpain [3] = conditions: broken membrane preparations; cited from earlier work
rats = conditions: cited from earlier work
[4] = target: Muscle and erythrocyte calpain; assay: In Vitro Assay of Calpain (fluorometric, t-Boc-Val-Leu-Lys-7-amido-4-methyl-coumarin substrate); format: biochemical; conditions: In Vitro Calpain Inhibition
Method: In Vitro Assay of Calpain in the Prescence of Calpain Inhibitors
Muscle and erythrocyte calpain were assayed by a fluorometric procedure using t-Boc-Val-Leu-Lys-7-amido-4-methyl-coumarin as the substrate, Sasaki et al., J. Biol. Chem. 259, 12489-12494 (1984). The enzyme calpain is commercially available and may be purchased from Sigma. The assay buffer, pH, assay techniques and calculation of the inhibitory constant (Ki) are similar to those described by Mehdi et al., Biochem. Biophys. Res. Commun. 157, 1117-1123 (1988).

[5] = system: male spontaneously hypertensive rats; assay: Neuroprotection in vivo, focal cerebral ischemia by permanent tandem occlusion of right middle cerebral artery and right common carotid artery; set-up: species or system rat (spontaneously hypertensive)
Method: Neuroprotection In Vivo With MDL 104,903 In a Model of Focal Cerebral Ischemia
For example, twelve male spontaneously hypertensive rats were divided into two groups: a vehicle-treated group and a calpain inhibitor-treated groups (MDL 104,903; 4×30 mg/kg cumulative doses). Ischemia was induced by permanent tandem occlusion of the right middle cerebral artery and right common carotid artery. Animals were killed 24 hours after surgery, and quantitative measurements of infarction volumes were performed using standard histological techniques and quantitative image analysis.

[6] = individual animal, inhibitor-treated group, 4×30 mg/kg I.V., 24 hours after surgery, 30 mg/kg

Compound: CC(C)[C@H](NC(=O)OCc1ccccc1)C(=O)N[C@H](C=O)Cc1ccccc1 [Cbz-Val-Phe-H] (Cbz-Val-Phe-aldehyde)
cell penetration (calpain [1]; inhibitor of calpain): cell-penetrating | Ki for calpain (calpain [1]; intact cell systems): low | proteolytic response to post-decapitation ischemia [2]: reduced | Ki for calpain (calpain [3]): low | reduction of infarction, edema, and calcium-activated proteolysis (rats; intravenous injections, cumulative doses of 30 mg/kg or 60 mg/kg): effective in reducing infarction, edema, and calcium-activated proteolysis | volumes of cerebral infarction (rats; rats, versus saline-treated or vehicle-treated control animals): significantly smaller

Compound: CC(=O)O[C@@H]1OCN(C(=O)[C@@H](NC(=O)OCc2ccccc2)C(C)C)[C@H]1Cc1ccccc1 [MDL 104,860, [4S-[3(R*),4α,5β]]-[1-[[5-(acetyloxy)-4-(phenylmethyl)-3-oxazolidinyl]carbonyl]-2-methylpropyl]carbamic acid, phenylmethyl ester]
Ki [4]: 1450 nM

Compound: CC(C)[C@H](NC(=O)OCc1ccccc1)C(=O)N1CO[C@@H](OC(=O)N2CCOCC2)[C@@H]1Cc1ccccc1 [MDL 105,803, [4S-[3(R*),4α,5β]]-3-[3-methyl-1-oxo-2-[[(phenylmethoxy)carbonyl]amino]butyl]-4-(phenylmethyl)-5-oxazolidinyl ester, 4-morpholinecarboxylic acid]
Ki [4]: 2000 nM

Compound: [4S-[3(R*),4α,5β]]-[1-[[5-(propionyloxy)-4-(phenylmethyl)-3-oxazolidinyl]carbonyl]-2-methylpropyl]-carbamic acid, phenylmethyl ester [MDL 105,387]
Ki [4]: 1200 nM

Second part, led by results:

Ki [4]: 1300 nM
Compound: CCCC(=O)O[C@@H]1OCN(C(=O)[C@@H](NC(=O)OCc2ccccc2)C(C)C)[C@H]1Cc1ccccc1 [MDL 103,821, [4S-[3(R*),4α,5β]]-[1-[[5-butyryloxy)-4-(phenylmethyl)-3-oxazolidinyl]carbonyl]-2-methylpropyl]-carbamic acid, phenylmethyl ester]

Ki [4]: 300 nM
Compound: CCCCC(CC)C(=O)O[C@@H]1OCN(C(=O)[C@@H](NC(=O)OCc2ccccc2)C(C)C)[C@H]1Cc1ccccc1 (stereo partly drawn) [MDL 104,092, [4S-[3(R*),4α,5β]]-[1-[[5-(2-ethylhexanoyl-oxy)-4-(phenylmethyl)-3-oxazolidinyl]carbonyl]-2-methylpropyl]-carbamic acid, phenylmethyl ester]

Ki [4]: 33 nM
Compound: CC(C)[C@H](NC(=O)OCc1ccccc1)C(=O)N1CO[C@@H](O)[C@@H]1Cc1ccccc1 [MDL 104,903, [4S-[3(R*),4α,5β]]-[1-[[5-hydroxy-4-(phenylmethyl)-3-oxazolidinyl]carbonyl]-2-methylpropyl]-carbamic acid, phenylmethyl ester]
reduction in infarct volume ([5]; 4×30 mg/kg I.V. doses via femoral vein at 2 hour intervals beginning 5 min. after initiation of ischemia, 24 hours after surgery): 20.5% | % of Reduction (Percentage of Infarct Reduction) ([5]; comparison of mean values with vehicle group, 4×30 mg/kg I.V.): 20.24% | Brain Volume ([5]; individual animal, inhibitor-treated group, 4×30 mg/kg I.V. at 2 hour intervals from 5 min after ischemia, 24 hours after surgery, 30 mg/kg): 1307.52 mm^3 and 1309.36 mm^3 and 1257.24 mm^3 and 1313.62 mm^3 and 1333.44 mm^3 and 1326.46 mm^3 | Infarct Vol. v. Brain Vol. [5, 6]: 12.61% and 14.14% and 13.59% and 10.07% and 10.93% | Infarct Volume [5, 6]: 164.94 mm^3 and 185.16 mm^3 and 170.84 mm^3 and 178.58 mm^3 and 134.28 mm^3 and 144.92 mm^3 | Infarct Vol. v. Brain Vol., mean ([5]; mean of inhibitor-treated group (animals 7-12), 4×30 mg/kg I.V., vehicle mean 15.66): 12.49% | Infarct Volume, mean ([5]; mean of inhibitor-treated group (animals 7-12), 4×30 mg/kg I.V., vehicle mean 205.14): 163.12 mm^3 | Brain Volume, mean ([5]; mean of inhibitor-treated group (animals 7-12), 4×30 mg/kg I.V., vehicle mean 1310.15): 1307.94 mm^3

Ki [4]: 1100 nM
Compound: COc1ccc(CC(=O)O[C@@H]2OCN(C(=O)[C@@H](NC(=O)OCc3ccccc3)C(C)C)[C@H]2Cc2ccccc2)cc1 [MDL 105,236, [4S-[3(R*),4α,5β]]-[1-[[5-(4-methoxyphenyl-acetyloxy)--4-(phenylmethyl)-3-oxazolidinyl]carbonyl]-2-methylpropyl-1]-carbamic acid, phenylmethyl ester]

Ki [4]: 2100 nM
Compound: CC(C)[C@@H](C(=O)N1CO[C@@H](O)[C@@H]1Cc1ccccc1)N(C)C(=O)OCc1ccccc1 [MDL 105,423, [4S-[3(R*),4α,5β]]-[1-[[5-hydroxy-4-(phenylmethyl-3-oxazolidinyl]carbonyl]-2-methylpropyl]methyl-carbamic acid, phenylmethyl ester]

Ki [4]: 700 nM
Compound: CCOC(=O)CCC(=O)O[C@@H]1OCN(C(=O)[C@@H](NC(=O)OCc2ccccc2)C(C)C)[C@H]1Cc1ccccc1 [MDL 105,608, [4S-[3(R*),4α,5β]]-[1-[[5-(ethylsuccinyloxy)-4-(phenylmethyl)-3-oxazolidinyl]carbonyl]-2-methylpropyl]-carbamic acid, phenylmethyl ester]
